Measured values published in patent publication US20240262815A1, “HETEROARYL DERIVATIVE, METHOD FOR PREPARING SAME, AND PHARMACEUTICAL COMPOSITION COMPRISING SAME AS ACTIVE INGREDIENT” (VORONOI INC., priority 2021, published 2024).

Legend:
BT-474 cancer cells = assay: Inhibitory activity against proliferation of BT-474 cancer cells (CellTiter-Glo); assay type: cell-based; conditions: Homo sapiens, BT-474 ErbB2-overexpressing cancer cells, 120 hours after treatment
Procedure, shortened: (§1)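 GI50 derived from % growth relative to control, measured by CellTiter-Glo luminescence after 120 h compound exposure (12 concentrations, 0.2 nM-5 μM final, n=3). BT-474 grown in RPMI-1640/20% FBS, SK-BR-3 in McCOY'S 5A/10% FBS; seeding 48 h pre-treatment.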

SK-BR-3 cancer cells = assay: Inhibitory activity against proliferation of SK-BR-3 cancer cells (CellTiter-Glo); assay type: cell-based; conditions: Homo sapiens, SK-BR-3, 120 h, ErbB2-overexpressing SK-BR-3 cells, 120 hours after treatment
Procedure, shortened: as §1

SMILES | GI50 (BT-474 cancer cells) [nM] | GI50 (SK-BR-3 cancer cells) [nM]
C=CC(=O)Nc1cc(Nc2cc(N3OCC[C@@H]3c3cccc(-c4cccc(F)c4)c3)ncn2)c(OC)cc1N1CCN(C2COC2)CC1 [Example 293, (R)-N-(5-((6-(3-(3′-fluoro-[1,1′-biphenyl]-3-yl)-isoxazolidin-2-yl)-pyrimidin-4-yl)-amino)-4-methoxy-2-(4-(oxetan-3-yl)-piperazin-1-yl)-phenyl)acrylamide] | 50 to 500 | < 50
C=CC(=O)Nc1cc(Nc2cc(N3OCC[C@@H]3c3cccc(C#Cc4ccccc4)c3)ncn2)c(OC)cc1N(C)CCN(C)C [Example 297, (R)-N-(2-((2-(dimethylamino)-ethyl)(methyl)-amino)-4-methoxy-5-((6-(3-(3-(phen-ylethynyl)phenyl)-isoxazolidin-2-yl)-pyrimidin-4-yl)-amino)phenyl)-acrylamide] | < 50 | < 50
C=CC(=O)Nc1cc(Nc2cc(N3OCC[C@@H]3c3cccc(-c4ccc(OC)nc4)c3)ncn2)c(OC)cc1N1CCN(C)CC1 [Example 298, (R)-N-(4-methoxy-5-((6-(3-(3-(6-methoxypyridin-3-yl)phenyl)-isox-azolidin-2-yl)-pyrimidin-4-yl)-amino)-2-(4-meth-ylpiperazin-1-yl)-phenyl)acrylamide] | < 50 | < 50
C=CC(=O)Nc1cc(Nc2cc(N3OCC[C@@H]3c3cccc(-c4ccc(OC)nc4)c3)ncn2)c(OC)cc1N(C)CCN(C)C [Example 300, (R)-N-(2-((2-(dimethylamino)-ethyl)(methyl)-amino)-4-methoxy-5-((6-(3-(3-(6-methoxypyridin-3-yl)phenyl)isox-azolidin-2-yl)pyr-imidin-4-yl)amino)-phenyl)acrylamide] | < 50 | < 50

More lines, now with the values ahead:

GI50 (BT-474 cancer cells) [nM] | GI50 (SK-BR-3 cancer cells) [nM] | SMILES
< 50 | < 50 | C=CC(=O)Nc1cc(Nc2cc(N3OCC[C@@H]3c3cccc(-c4cccc(F)c4)c3)ncn2)c(OC)cc1N1CCN(C(C)=O)CC1 [Example 289, (R)-N-(2-(4-acetyl-piperazin-1-yl)-5-((6-(3-(3′-fluoro-[1,1′-biphenyl]-3-yl)isoxazolidin-2-yl)pyrimidin-4-yl)-amino)-4-methoxy-phenyl)acrylamide]
< 50 | < 50 | C=CC(=O)Nc1cc(Nc2cc(N3OCC[C@@H]3c3cccc(-c4cccc(F)c4)c3)ncn2)c(OC)cc1N1CCS(=O)(=O)CC1 [Example 290, (R)-N-(2-(1,1-dioxidothiomorph-olino)-5-((6-(3-(3′-fluoro-[1,1′-biphen-yl]-3-yl)isoxazol-idin-2-yl)pyrim-idin-4-yl)amino)-4-methoxyphen-yl)acrylamide]
< 50 | < 50 | C=CC(=O)Nc1cc(Nc2cc(N3OCC[C@@H]3c3cccc(-c4cccc(F)c4)c3)ncn2)c(OC)cc1N1C[C@@H](C)O[C@@H](C)C1 [Example 292, N-(2-((2S,6R)-2,6-dimethylmorpho-lino)-5-((6-((R)-3-(3′-fluoro-[1,1′-biphenyl]-3-yl)-isoxazolidin-2-yl)-pyrimidin-4-yl)-amino)-4-methoxy-phenyl)acrylamide]
< 50 | < 50 | C=CC(=O)Nc1cc(Nc2cc(N3OCC[C@@H]3c3cccc(-c4cccc(F)c4)c3)ncn2)c(OC)cc1N1CCN(S(C)(=O)=O)CC1 [Example 294, (R)-N-(5-((6-(3-(3′-fluoro-[1,1′-biphenyl]-3-yl)-isoxazolidin-2-yl)-pyrimidin-4-yl)-amino)-4-methoxy-2-(4-(methylsulfon-yl)piperazin-1-yl)-phenyl)acrylamide]
< 50 | 50 to 500 | C=CC(=O)Nc1cc(Nc2cc(N3OCC[C@@H]3c3cccc(-c4cccc(F)c4)c3)ncn2)c(OC)cc1N1CC2(CN(C(=O)OC(C)(C)C)C2)C1 [Example 295, tert-butyl (R)-6-(2-acrylamido-4-((6-(3-(3′-fluoro-[1,1′-biphenyl]-3-yl)-isoxazolidin-2-yl)-pyrimidin-4-yl)-amino)-5-methoxy-phenyl)-2,6-diazaspiro[3.3]-heptane-2-carbox-ylate]
